Measured values from article PMC10439028, “SGLT5 is the renal transporter for 1,5-anhydroglucitol, a major player in two rare forms of neutropenia” (Cellular and Molecular Life Sciences: CMLS, 2023).

Assays:
[1] = biological target: T1, human SGLT5 (Homo sapiens, UniProt A0PJK1); test: Radioactive uptake assay (saturation kinetics) in HEK293T cells stably overexpressing human SGLT5-iso2; type: cell-based; settings: for hSGLT5 Vmax: transport of the labelled substrate, Fig. 2B
T1 construct: expressed in transfected cells
T1 sequence (A0PJK1 1-596): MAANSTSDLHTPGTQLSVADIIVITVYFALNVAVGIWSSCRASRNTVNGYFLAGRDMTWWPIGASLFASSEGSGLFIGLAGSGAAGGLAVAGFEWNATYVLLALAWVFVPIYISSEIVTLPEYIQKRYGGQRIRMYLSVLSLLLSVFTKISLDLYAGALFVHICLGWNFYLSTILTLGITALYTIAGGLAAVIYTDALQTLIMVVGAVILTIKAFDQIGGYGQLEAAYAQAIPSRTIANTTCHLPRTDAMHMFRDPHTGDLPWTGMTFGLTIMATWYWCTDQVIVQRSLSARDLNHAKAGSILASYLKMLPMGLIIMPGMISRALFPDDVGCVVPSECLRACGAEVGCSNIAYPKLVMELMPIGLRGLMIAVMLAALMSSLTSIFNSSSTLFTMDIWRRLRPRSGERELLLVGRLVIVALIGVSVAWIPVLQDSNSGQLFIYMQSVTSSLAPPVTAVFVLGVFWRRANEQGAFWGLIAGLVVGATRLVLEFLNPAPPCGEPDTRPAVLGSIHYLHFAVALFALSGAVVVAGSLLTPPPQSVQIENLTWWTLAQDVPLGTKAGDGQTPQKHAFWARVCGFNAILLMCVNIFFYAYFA
From the text: This assay was used to study (1) the transport of 1,5-AG or mannose by the HEK293T model cell lines that stably overexpressed the various transporters or by the transiently transfected HEK293T cells using JetPEI® as a transfection agent prepared as described above and (2) the substrate specificity of each transporter.
(§1) For a typical transporter experiment we proceeded as follows. […] To minimize cell loss during the various washing steps in the radioactive uptake experiments, the wells where the cells were seeded were previously coated with poly- D-lysine, which improved their adhesion to the plastic surface of the wells. For this, each well of the 24-well plates was treated with 200 µl of a 0.01% poly-L-lysine solution for 10 min, washed 3 times with 1 ml of sterilized water and left to dry for 2 h. Only then could the 24-well plates be seeded with the appropriate cell lines and cultured overnight at 37 °C in 5% CO2.
On day two, the radioactive uptake assay could be performed. The cell culture media was removed by aspiration and cells were incubated for 20 min at 37 °C and 5% CO2 with a basal medium (10 mM HEPES, pH 7.4, 1 mM CaCl2, 1 mM MgCl2, 2 mM KCl) containing 140 mM choline chloride to deplete intracellular […] ions. This was subsequently replaced with the uptake medium (basal medium + 140 mM NaCl, 25 μM cytochalasin B, 1 mg/ml BSA) containing either radioactive U-[^14C]-mannose (15,000 cpm/well) or 2-[^3H]-1,5-AG (30,000 cpm/well) and respectively, non-radioactive mannose or 1,5-AG, at the required concentration in the experiment. […]
(§2) Once the uptake medium was added to the cells, the plates were incubated at 37 °C in 5% CO2 during the required time. […] In each experiment, the transport activities were calculated after subtracting a “blank” value, corresponding to the radioactivity in the appropriate control cells (HEK293T cells that were stably or transiently transfected with one of the parent plasmids pEF6/MycHisA, pEF6HisB, pUB82 or pUB83 with no inserted cDNA) that were analyzed in parallel.

[2] = biological target: T2, human SGLT4 (Homo sapiens, UniProt Q2M3M2); test: Inhibition of 10 µM radiolabelled mannose transport in HEK293T cells overexpressing human SGLT4; type: cell-based; settings: substrate 10 μM mannose
T2 construct: expressed in transfected cells
T2 sequence (Q2M3M2 1-681): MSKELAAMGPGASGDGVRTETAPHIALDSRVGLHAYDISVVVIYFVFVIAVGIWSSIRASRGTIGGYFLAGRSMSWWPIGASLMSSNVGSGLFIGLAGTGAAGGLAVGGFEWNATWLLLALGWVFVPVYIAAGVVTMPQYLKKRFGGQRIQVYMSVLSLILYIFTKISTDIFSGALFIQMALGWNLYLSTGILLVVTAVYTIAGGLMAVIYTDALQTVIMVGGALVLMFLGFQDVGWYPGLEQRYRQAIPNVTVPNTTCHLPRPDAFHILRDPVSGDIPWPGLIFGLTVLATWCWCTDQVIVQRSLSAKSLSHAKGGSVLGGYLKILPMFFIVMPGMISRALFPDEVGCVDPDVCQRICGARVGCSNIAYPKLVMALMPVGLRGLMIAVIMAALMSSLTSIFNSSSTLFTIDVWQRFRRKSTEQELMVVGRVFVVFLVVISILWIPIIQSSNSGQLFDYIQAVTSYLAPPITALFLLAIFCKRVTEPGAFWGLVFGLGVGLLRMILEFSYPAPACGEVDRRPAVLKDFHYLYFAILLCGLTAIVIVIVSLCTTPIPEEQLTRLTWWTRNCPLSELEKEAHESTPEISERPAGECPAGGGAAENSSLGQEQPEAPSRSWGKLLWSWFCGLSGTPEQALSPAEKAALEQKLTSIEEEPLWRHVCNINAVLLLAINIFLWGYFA
Method: as §1
On day two, the radioactive uptake assay could be performed. The cell culture media was removed by aspiration and cells were incubated for 20 min at 37 °C and 5% CO2 with a basal medium (10 mM HEPES, pH 7.4, 1 mM CaCl2, 1 mM MgCl2, 2 mM KCl) containing 140 mM choline chloride to deplete intracellular […] ions. This was subsequently replaced with the uptake medium (basal medium + 140 mM NaCl, 25 μM cytochalasin B, 1 mg/ml BSA) containing either radioactive U-[^14C]-mannose (15,000 cpm/well) or 2-[^3H]-1,5-AG (30,000 cpm/well) and respectively, non-radioactive mannose or 1,5-AG, at the required concentration in the experiment. Importantly, when measuring the transport of mannose, the uptake media also contained 0.5 mM glucose. This resulted from the need to reduce the background transport of mannose in control HEK293T cells in order to optimize the transport assay for this sugar in our model cell lines. Consequently, after testing various inhibitors (Supplementary Fig. 1), 0.5 mM glucose + 25 µM cytochalasin B appeared as the best combination to decrease efficiently the endogenous transport of mannose in control cells without affecting the transport of mannose in model cell lines overexpressing SGLT4 and SGLT5. Therefore in the radioactive uptake assays for mannose, the uptake medium was: basal uptake medium + 140 mM NaCl, 25 μM cytochalasin B, 0.5 mM glucose and 1 mg/ml BSA to which we added U-[^12C + ^14C]-mannose as described above.
as §2
The transport experiments to study the specificity of SGLT4 or SGLT5, were performed in the presence of 10 µM U-[^14C + ^12C]-mannose (for SGLT4) or 2-[^3H + ^1H]-1,5-AG (for SGLT5) and increasing concentrations of various sugars tested. The transport experiments to study the inhibition of empagliflozin, dapagliflozin or remogliflozin, on the transport of 1,5-AG by SGLT5 or its variants were performed in the presence of 10 µM 2-[^3H + ^1H]-1,5-AG and increasing concentrations of the various gliflozins tested.

Compound	hSGLT5 Vmax [1]	IC50 ([2]; Fig. 3C, read-out: hSGLT4 IC50)	Vmax ([1]; hSGLT5 WT, Table 1 experiments)	hSGLT4 inhibition with 10 mM inhibitor ([2]; 10 mM inhibitor)
OC[C@H]1OC(O)[C@@H](O)[C@@H](O)[C@@H]1O (some centres unmarked) [Mannose, mannose]	44.7 ± 12.4 pmol/min/10^5 cells	125 µM		
OC[C@H]1OC[C@H](O)[C@@H](O)[C@@H]1O [1,5-AG, 1,5-anhydroglucitol]	14.1 ± 0.8 pmol/min/10^5 cells		17.3 ± 0.3 pmol/min/10^5cells	no inhibition
